Among the data in PubChem BioAssay (NCI) are TGI values, retold here.

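Briefly, cells in 96-well plates were exposed to five compound concentrations for 48 h, and endpoints were estimated by linear interpolation. At the TGI there is no net growth.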

Common to all, as to experiment: inhibition of tumour cell growth, NCI panel, 48 h
In assay [1] the test system is SNB-75 CNS.
Assay [2] deals with NCI-H226 lung.
Assay [3] relates to MCF7 breast.
For assay [4], the system named is M14 melanoma.
Assay [5] has as its system RPMI-8226 leukemia.
The test system of assay [6] is HCC-2998 colon.
Assay [7] concerns SK-MEL-2 melanoma.
Assay [8] relates to LOX IMVI melanoma.
For assay [9], the system named is IGROV1 ovarian.
Assay [10] has as its system NCI-H23 lung.

As for `O=C1Nc2noc(=O)nc2NO1`, the TGI in assay [1], in [2], in assay [3], in [4], in assay [5] and in [6] was more than 200 µM throughout. The TGI in assay [7], in [8], in assay [9] and in assay [10] was more than 200 µM in each case.

Regarding `COc1ccc2oc(=O)c(-c3cc4c(c(C)n3)c(=O)oc3ccc(OC)cc34)cc2c1`, the TGI in assay [1], in assay [2], in assay [3], in assay [4], in assay [5] and in assay [6] was more than 100 µM each time. In addition, the TGI in [7], in assay [8], in [9] and in assay [10] was more than 100 µM in each case.

Turning to `O=c1c2ccc(Cl)cc2oc2c(CSc3ccccc3)cccc12`, the TGI in [1] was more than 74.5 µM; in [2] it was more than 100 µM; in assay [3], more than 100 µM; in [4], more than 100 µM; in assay [5], 81.3 µM; in [6], more than 100 µM. Moreover, the TGI in [7] is more than 100 µM; in assay [8] it was more than 91.9 µM; in assay [9] it was more than 52 µM; in assay [10], more than 87.6 µM.

In the case of `COc1cc2c(cc1O)C(Cc1ccc(OCc3ccccc3)c(OCc3ccccc3)c1)N(C(=O)NCCc1ccccc1)CC2` (stereo not given), the TGI in [1], in assay [2], in [3], in assay [4], in assay [5] and in [6] was more than 100 µM each time. Moreover, the TGI in assay [7], in assay [8], in [9] and in [10] was more than 100 µM throughout.

As to `CCNC(=S)N/N=C(/C)c1cccc(/C(C)=N\NC(=S)NCC)n1`, the TGI in assay [1] was more than 73.2 µM; in assay [2] it was 7.39 µM; in [3] it was 31.2 µM; in assay [4], 19.9 µM; in assay [5], 25.7 µM; in assay [6], more than 96.7 µM. Moreover, the TGI in assay [7] was more than 93.1 µM; in assay [8], 35.8 µM; in assay [9] it was more than 64 µM; in assay [10] it was 73.7 µM.

As for `O=C(O)[C@H]1NC[C@H]2C(Br)=NO[C@@H]12`, the TGI in assay [1], in assay [2], in assay [3], in [4], in assay [5] and in assay [6] was more than 100 µM in each case. In addition, the TGI in assay [7], in assay [8], in assay [9] and in assay [10] was more than 100 µM throughout.

Turning to `C[C@H]1CCC/C=C/[C@@H]2C[C@H](OC3OC(CO)C(O)C(O)C3O)C[C@H]2[C@H](O)/C=C/C(=O)O1` (stereo not given in full), the TGI in assay [1], in assay [2], in [3], in assay [4], in [5] and in assay [6] was more than 100 µM in each case. Further, the TGI in [7], in assay [8], in [9] and in [10] was more than 100 µM throughout.

Regarding `COc1ccc(S(=O)(=O)NC(CCC(=O)NC(N)=O)C(=O)NC(N)=O)cc1` (stereo not given), the TGI in [1], in [2], in [3], in [4], in assay [5] and in assay [6] was more than 100 µM in each case. Further, the TGI in assay [7], in assay [8], in assay [9] and in assay [10] was more than 100 µM throughout.

With `Cc1ccc(C(=O)Nc2ccc(CP(=O)(O)O)cc2CP(=O)(O)O)cc1N`, the TGI in assay [1], in [2], in [3], in [4], in assay [5] and in [6] was more than 100 µM each time. In addition, the TGI in assay [7], in assay [8], in assay [9] and in [10] was more than 100 µM throughout.

Consider `Cc1nnc(SCc2nc(C#N)c(C#N)nc2CSc2nnc(C)s2)s1`, for which the TGI in [1] turned out to be 41.1 µM; in assay [2], 54.1 µM; in [3], 34.3 µM; in assay [4], 37.6 µM; in assay [5], 18 µM; in assay [6], 30.4 µM. Besides, the TGI in assay [7] was determined as 63.4 µM; in assay [8] it was 23.3 µM; in assay [9], 33.5 µM; in assay [10], 45 µM.

For the molecule `C/C(=N/NC(=S)Nc1ccc(C)cc1)c1ccccn1`, the TGI is 17.2 µM in assay [1]; 2.6 µM in assay [2]; 16.6 µM in assay [3]; 2.37 µM in [4]; 25.7 µM in assay [5]; 18.6 µM in assay [6]. In addition, the TGI in assay [7] was determined as 13.9 µM; in assay [8], 20.8 µM; in [9] it was 13.6 µM; in assay [10], 16.1 µM.

Turning to `O=C(/C=C/c1ccccc1)c1cc(CN2CCOCC2)c(O)c(CN2CCOCC2)c1`, the TGI in assay [1] was 38.9 µM; in [2], 64.9 µM; in [3], 32.4 µM; in [4] it was 43.2 µM; in assay [5], 21.4 µM; in assay [6] it was 33.7 µM. Further, the TGI in assay [7] is 61.8 µM; in [8], 19.5 µM; in assay [9], more than 100 µM; in assay [10] it was 60 µM.

Consider `CC1=NC(=N)N=C(C)C1N=Nc1ccc2nc(C)[nH]c2c1` (stereo not given), for which the TGI in assay [1], in assay [2], in [3], in assay [4], in [5] and in [6] was more than 100 µM throughout. Moreover, the TGI in assay [7], in [8], in assay [9] and in [10] was more than 100 µM in each case.

Turning to `CCCCCCCCCCCCCCCCNc1nc(=O)n(C2OC(C)C(O)C2O)cc1F` (stereo not given), the TGI in assay [1] worked out at 33.1 µM; in assay [2], 40.6 µM; in assay [3], 33 µM; in [4], 33.5 µM; in assay [5] it was 33.9 µM; in [6] it was 31 µM. Besides, the TGI in assay [7] came to 38.9 µM; in assay [8], 55.5 µM; in assay [9], 37.6 µM; in [10], 32.7 µM.
